This note sets out measurements from patent US10035790B2, “RORγ modulators” (BRISTOL-MYERS SQUIBB COMPANY, priority 2012, dated 2018).

pIC50: −log10 of the molar value.

The term pIC50 denotes the IC50 on a negative log10 scale, so that one unit is a factor of ten.

The assay addresses T1, ligand binding domain of human RORγ (A262-S507) (Homo sapiens, UniProt P51449).
T1 construct: made in house; host or cells: E. coli
T1 sequence (P51449 262-507): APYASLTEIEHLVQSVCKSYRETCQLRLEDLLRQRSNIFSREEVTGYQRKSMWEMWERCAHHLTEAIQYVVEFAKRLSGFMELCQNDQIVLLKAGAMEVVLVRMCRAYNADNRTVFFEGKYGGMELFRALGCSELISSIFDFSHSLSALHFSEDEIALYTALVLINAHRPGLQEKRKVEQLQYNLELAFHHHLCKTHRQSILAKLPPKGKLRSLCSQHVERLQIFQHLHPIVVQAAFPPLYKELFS
The experiment in a line: General RORγ SPA binding assay (competition with [3H]25-hydroxycholesterol). The note with it: RORγ SPA binding assay, inhibition of [3H]25-hydroxycholesterol binding; read-out: IC50. The method, then: Example 2 General RORγ SPA Binding Assay
The binding of potential ligands to RORγ is measured by competition with [^3H]25-hydroxycholesterol using a scintillation proximity assay (SPA) binding assay. The ligand binding domain of human RORγ (A262-S507) with an N-terminal His tag is expressed in E. coli and purified using nickel affinity chromotography. 50 nM RORγ (A262-S507) is incubated with test compound at varying concentrations for 15 min at room temperature in PBS buffer containing 0.5% fatty acid free BSA. […] of [^3H]25-hydroxycholesterol is then added, and the reaction is incubated for 15 min. 4 mg/mL of Ysi Copper HIS-TAG SPA Beads (Perkin Elmer) are added, and the mixture is incubated for 30 min. The reaction is read on a MicroBeta Trilux scintillation plate reader (Perkin Elmer). IC50 values are determined from the percentage inhibition of [^3H]25-hydroxycholesterol binding.
As for `C/C(=N\Oc1cccc(C(F)(F)F)c1)c1cnc(N)nc1C1CCN(C(=O)Nc2c(F)cccc2F)CC1` [Compound B51, 4-{2-Amino-5-[(1E)-N-{[3-(trifluoromethyl)phenyl]oxy}ethanimidoyl]pyrimidin-4-yl}-N-(2,6-difluorophenyl)piperidine-1-carboxamide], the pIC50 is 8.07.
For `Cc1ncc(C(=O)NC(C)c2cccc(Cl)c2)c(C2CCN(C(=O)Cc3c(F)cccc3F)CC2)n1` (stereo not drawn) [Compound A76, N-(1-(3-chlorophenyl)ethyl)-4-(1-(2-(2,6-difluorophenyl)acetyl)piperidin-4-yl)-2-methylpyrimidine-5-carboxamide] the value was 5.95.
As to `CC(C)Nc1ncc(C(=O)NCc2cccc(Cl)c2)c(C2CCN(C(=O)Cc3c(F)cccc3F)CC2)n1` [Compound A94, N-(3-chlorobenzyl)-4-(1-(2-(2,6-difluorophenyl)acetyl)piperidin-4-yl)-2-(isopropylamino)pyrimidine-5-carboxamide], the pIC50 was 7.60.
To `CC(C)c1ncc(C(=O)NCc2ccc(Cl)c(Cl)c2)c(C2CCN(C(=O)Cc3ccccc3F)CC2)n1` [Compound A36, N-(3,4-dichlorobenzyl)-4-(1-(2-(2-fluorophenyl)acetyl)piperidin-4-yl)-2-isopropylpyrimidine-5-carboxamide] belongs 5.48.
To `Nc1ncc(C(O)COc2ccnc(C(F)(F)F)n2)c(C2CCN(C(=O)Oc3c(F)cccc3F)CC2)n1` (stereo not drawn) [Compound N13, 2,6-Difluorophenyl 4-[2-amino-5-(1-hydroxy-2-{[2-(trifluoromethyl)pyrimidin-4-yl]oxy}ethyl)pyrimidin-4-yl]piperidine-1-carboxylate] belongs 8.17.
To `Cc1ncc(C(C)(C)CNc2ccnc(C(F)(F)F)n2)c(C2CCN(C(=O)Nc3c(F)cccc3F)CC2)n1` [Compound F8, N-(2,6-Difluorophenyl)-4-(2-methyl-5-(2-methyl-1-(2-(trifluoromethyl)pyrimidin-4-ylamino)propan-2-yl)pyrimidin-4-yl)piperidine-1-carboxamide] belongs 5.87; to `Cc1ncc(/C(COc2cccc(C(F)(F)F)n2)=N/O)c(C2CCN(C(=O)Nc3c(F)cccc3F)CC2)n1` [Compound N26, N-(2,6-difluorophenyl)-4-{5-[(1Z)—N-hydroxy-2-{[6-(trifluoromethyl)pyridin-2-yl]oxy}ethanimidoyl]-2-methylpyrimidin-4-yl}piperidine-1-carboxamide], 6.85; to `Cc1ncc(/C(CF)=N/Oc2ccnc(C(F)(F)F)n2)c(C2CCN(C(=O)Cc3c(F)cccc3F)CC2)n1` [Compound B27, (Z)-2-(2,6-difluorophenyl)-1-(4-(5-(2-fluoro-1-(((2-(trifluoromethyl)pyrimidin-4-yl)oxy)imino)ethyl)-2-methylpyrimidin-4-yl)piperidin-1-yl)ethanone], 7.45.
On to `COc1ccccc1OC(=O)N1CCC(c2nc(N)nc(C)c2-c2nnc(-c3ccnc(C(F)(F)F)n3)o2)CC1` [Compound C57, 2-(methyloxy)phenyl 4-(2-amino-6-methyl-5-{5-[2-(trifluoromethyl)pyrimidin-4-yl]-1,3,4-oxadiazol-2-yl}pyrimidin-4-yl)piperidine-1-carboxylate], for which the negative-log IC50 (pIC50) is 7.63.
For `Cc1ncc(C(C)(O)CNc2cccc(C(F)(F)F)n2)c(C2CCN(C(=O)Cc3c(F)cccc3F)CC2)n1` (stereo not drawn) [Compound D2, 2-(2,6-difluorophenyl)-1-(4-(5-(2-hydroxy-1-((6-(trifluoromethyl)pyridin-2-yl)amino)propan-2-yl)-2-methylpyrimidin-4-yl)piperidin-1-yl)ethanone] the value was 8.41; for `Cc1ncc(C(O)COc2cccc(C(F)(F)F)n2)c(C2CCN(C(=O)Nc3c(F)cccc3F)CC2)n1` (stereo not drawn) [Compound N1, N-(2,6-Difluorophenyl)-4-[5-(1-hydroxy-2-{[6-(trifluoromethyl)pyridin-2-yl]oxy}ethyl)-2-methylpyrimidin-4-yl]piperidine-1-carboxamide], 8.18.
For `Cc1ncc(C(=O)NCc2cc(C(F)(F)F)ccn2)c(C2CCN(C(=O)Cc3c(F)cccc3F)CC2)n1` [Compound A66, 4-(1-(2-(2,6-difluorophenyl)acetyl)piperidin-4-yl)-2-methyl-N-((4-(trifluoromethyl)pyridin-2-yl)methyl)pyrimidine-5-carboxamide] the value was 7.14.
For the compound `CNc1ncc(C(C)(O)COc2ccnc(C(F)(F)F)n2)c(C2CCN(C(=O)Nc3c(F)cccc3F)CC2)n1` (stereo not drawn) [Compound D36, N-(2,6-Difluorophenyl)-4-[5-(1-hydroxy-1-methyl-2-{[2-(trifluoromethyl)pyrimidin-4-yl]oxy}ethyl)-2-(methylamino)pyrimidin-4-yl]piperidine-1-carboxamide], the negative logarithm of the IC50 (pIC50) is 7.80.
Take `Cc1cc(C)cc(CNC(=O)c2cnc(C)nc2C2CCN(C(=O)[C@@H](C)c3ccccc3)CC2)c1` [Compound A26, (S)-N-(3,5-dimethylbenzyl)-2-methyl-4-(1-(2-phenylpropanoyl)piperidin-4-yl)pyrimidine-5-carboxamide]: the pIC50 is 6.35.
For `Cc1nc(C)c(-c2nnc(-c3ccnc(C(F)(F)F)n3)o2)c(C2CCN(C(=O)Nc3c(Cl)cccc3Cl)CC2)n1` [Compound C31, N-(2,6-dichlorophenyl)-4-(2,6-dimethyl-5-{5-[2-(trifluoromethyl)pyrimidin-4-yl]-1,3,4-oxadiazol-2-yl}pyrimidin-4-yl)piperidine-1-carboxamide] the value was 7.30; for `Cc1cc(C)cc(CNC(=O)c2cnc(C)nc2C2CCN(C(=O)Cc3cccc(F)c3F)CC2)c1` [Compound A18, 4-(1-(2-(2,3-difluorophenyl)acetyl)piperidin-4-yl)-N-(3,5-dimethylbenzyl)-2-methylpyrimidine-5-carboxamide], 6.91; for `Cc1ncc(C(F)(F)COc2cccc(C(F)(F)F)n2)c(C2CCN(C(=O)Nc3c(F)cccc3F)CC2)n1` [Compound N14, N-(2,6-Difluorophenyl)-4-[5-(1,1-difluoro-2-{[6-(trifluoromethyl)pyridin-2-yl]oxy}ethyl)-2-methylpyrimidin-4-yl]piperidine-1-carboxamide], 8.39.
For `Cc1ncc(C(C)(O)CNc2ccn(C)n2)c(C2CCN(C(=O)Cc3c(F)cccc3F)CC2)n1` (stereo not drawn) [Compound D10, 2-(2,6-difluorophenyl)-1-(4-(5-(2-hydroxy-1-((1-methyl-1H-pyrazol-3-yl)amino)propan-2-yl)-2-methylpyrimidin-4-yl)piperidin-1-yl)ethanone] the value was 5.36.
To `Nc1ncc(C(=O)NCc2cccc(Cl)c2)c(C2CCN(C(=O)Cc3c(F)cccc3F)CC2)n1` [Compound A89, 2-amino-N-(3-chlorobenzyl)-4-(1-(2-(2,6-difluorophenyl)acetyl)piperidin-4-yl)pyrimidine-5-carboxamide] belongs 8.24.
On to `Cc1nc(C)c(-c2nnc(-c3ccnc(C(F)(F)F)n3)o2)c(C2CCN(C(=O)c3c(F)cccc3F)CC2)n1` [Compound C24, 4-{1-[(2,6-Difluorophenyl)carbonyl]piperidin-4-yl}-2,6-dimethyl-5-{5-[2-(trifluoromethyl)pyrimidin-4-yl]-1,3,4-oxadiazol-2-yl}pyrimidine], for which the pIC50 is 6.56.
To `Cc1cc(C)cc(CNC(=O)c2cnc(C)nc2C2CCN(C(=O)Cc3ccccn3)CC2)c1` [Compound A38, N-(3,5-dimethylbenzyl)-2-methyl-4-(1-(2-(pyridin-2-yl)acetyl)piperidin-4-yl)pyrimidine-5-carboxamide] belongs 5.28.
